Measured values taken from ChEMBL document CHEMBL1275341, “Synthesis and antimalarial activities of rhenium bioorganometallics based on the 4-aminoquinoline structure” (Bioorg Med Chem, 2010).
pIC50: −log10 of the molar value.

Tests used:
Plasmodium falciparum [1] = experiment: Antimalarial activity against chloroquine-susceptible Plasmodium falciparum 3D7 infected in human A+ RBC assessed as inhibition of [3H]hypoxanthine uptake after 48 hrs by scintillation counting; format: functional, organism-based
Plasmodium falciparum [2] = experiment: Antimalarial activity against chloroquine-resistant Plasmodium falciparum W2 infected in human A+ erythrocytes assessed as inhibition of [3H]hypoxanthine uptake after 48 hrs by scintillation counting; format: functional, organism-based

SMILES	pIC50 (Plasmodium falciparum [1])	pIC50 (Plasmodium falciparum [2])
Clc1ccc2c(NCCNCc3ccc4ccccc4c3)ccnc2c1	7.32	6.09
Clc1ccc2c(NCCNCc3cccc4ccccc34)ccnc2c1	6.33	5.92
Clc1ccc2c(NCCNCc3c4ccccc4cc4ccccc34)ccnc2c1	7.08	6.10
